Laboratory results from patent publication US20050032713A1, “Platelet-activating factor antagonists as analgesic, anti-inflammatory, uterine contraction inhibiting, and anti-tumor agents” (priority 2002, published 2005).
Entries after “also recorded” stand apart in the source; their conditions may differ. Where two headings read alike, the source gives them in different places.

Experiments:
[1] = tested on: formalin-induced nociception; test: Formalin test, intrathecal injection (spinal cord); type: in vivo, rat; conditions: for nociceptive response: injected intrathecally (into the spinal cord), 10, 1 or 0.1 μg, 20 minutes prior to formalin
Experimental: (§1) The day prior to formalin testing, rats were placed in the boxes for a 15 min habituation period. The day of testing, vehicle or PAF antagonists were administered and the rats were placed in the boxes for 20 min. At this time, animals were removed from the box, and 50 μl of 1% formalin (0.4% formaldehyde) was injected subcutaneously into the plantar surface of the right hind paw with a 27-gauge needle. Immediately after injection, each animal was exposed to the open field box for 60 min and the amount of time they elevated their injected paw was recorded as described for previous Examples.
(§2) Data were expressed as means+/−SEM and p values <0.05 were considered statistically significant. Experimental groups were compared using a one-way analysis of variance (ANOVA) with repeated measures (5 min blocks of time) followed by Scheffe's post-hoc test. Independent t-tests were used to assess the effects of the PAF antagonists on the individual 5 min bins of time post-formalin as well.

[2] = tested on: formalin-induced nociception; test: Formalin test, systemic (i.p.) administration; type: in vivo, rat; conditions: for nociceptive response (paw elevation time), early phase: 1-10 minutes post-formalin; for nociceptive response (paw elevation time), early phase / nociceptive response (paw elevation time), late phase: 10, 1 or 0.1 mg/kg i.p. 40 minutes prior to formalin; for nociceptive response (paw elevation time), late phase: 10-60 min post-formalin, vs control-treated rats; for dose-response relationship of decrease in nociceptive behavior: three doses 10, 1, 0.1 mg/kg i.p.
Experimental: Sixty male Sprague Dawley rats weighing 300-350 g (Taconic Labs, Canada) were housed in groups of 2-3 per cage, in polycarbonate cages. Animals were maintained under standard environmental conditions (room temperature: 20-20° C.; relative humidity: 55-60%; light/dark schedule: 12/12 hr) with free access to standard laboratory chow and tap water.
BN 50730 (Biomeasure; Milford, Mass.) and BN 52021 (Biomol) were dissolved in 45% hydroxypropyl-B-cyclodextrin in distilled water (HBC). Drugs (at doses of 10, 1, or 0.1 mg/kg) or vehicle were administered intraperitoneally (i.p.) 40 minutes prior to formalin injection. The doses chosen were based on those found to produce central effects after their peripheral administration.
Experiments were carried out in accordance with The National Institutes of Health Guide for the Care and Use of Laboratory Animals. Behavioral testing was carried out in a blind manner. Nociceptive responses were examined in the formalin test described previously, (Dubisson et al., The formalin test: a quantitative study of the analgesic effects of morphine, meperidine, and brain stimulation of rats and cats. Pain 4 (1977) 161-174). In brief, animals were placed in a clear Plexiglas® formalin test box (30 cm×30 cm×30 cm), with a mirror positioned at a 45° angle below the floor allowing for unobstructed observation of the animal's paw. Following a 10-min habituation period, animals were removed from the formalin box, at which time 50 μl of 1% formalin was injected subcutaneously (s.c.) into the plantar surface of the right hind paw with a 27-gauge needle. The amount of time that each rat elevated the injected paw was recorded in five-min intervals during the […] period following formalin injection. Each animal was used once.
The 60-min formalin test produced a biphasic response consisting of an initial, rapidly decaying acute phase (early phase, 1-10 minutes after injection) followed by a slow rising and long-lived tonic phase (late phase, 15-60 minutes after injection). Typically animals elevated their paws following injection (i.e. the early phase) followed by a reduction in this behavior. Approximately 15-20 minutes after injection, the inflammatory late phase began, and animals again elevated their paws to varying degrees for the remainder of the testing period. The amount of time animals elevated their injected paw was used as a behavioral measure of pain.
Data were expressed as means+/−SEM, and p values <0.05 were considered statistically significant. Treatment groups were compared with vehicle-controls using one-way analysis of variance (ANOVA) followed by Fischer's PLSD post-hoc test to compare between groups if overall significance was found by ANOVA.

[3] = tested on: formalin-induced nociception; test: Formalin test, injection into the lateral ventricle; type: in vivo, rat; conditions: for nociceptive response (paw elevation), group effect: lateral ventricle, 10, 1 or 0.1 μg, 20 min prior to formalin, ANOVA
Experimental: Animals were anesthetized (50 mg/kg sodium pentobarbitol), and unilateral guide cannulae (23 gauge) were implanted into the lateral ventricle. The guide cannulae were attached to the skull using jeweler's screws and dental acrylic. After surgery, stylets were inserted and left in place to ensure cannula patency. The formalin test was conducted 7-10 days post-surgery.
as §1
(§3) Upon completion of testing, animals were overdosed with sodium pentobarbitol and perfused with saline followed by 10% formalin solution. Brains were removed, fixed, and cut into 20-μm coronal sections throughout the cannula tract. Sections were then mounted, stained with cresyl violet, and coverslipped. […] The behavioral data for 4 rats were discarded from the study due to incorrect cannulae placement.
as §2

[4] = tested on: astrocyte-enriched cortical cell cultures; test: Effect of PAF antagonists on mc-PAF-, lyso-PAF- and AA-induced PGE2 release from astrocytes; type: cell-based, rat; conditions: for mc-PAF-induced PGE2 release: antagonist added 30 min before mc-PAF (1 μM), 30 min, BN 50730 0.1-100 μM, BN 52021 and CV 6209 1-50 μM; for AA-induced PGE2 release / lyso-PAF-induced PGE2 release: antagonist added 30 min prior
Experimental: (§4) All experimental protocols were approved by the Massachusetts Institute of Technology institutional review committee and meet the guidelines of the National Institutes of Health. Dissociated astrocytes were cultured from cortices of postnatal day 1-2 rat pups (as described by K. D. McCarthy, et al., Preparation of separate astroglial and oligodendroglial cell cultures from rat cerebral tissue, J. Cell Biol. 85 (1980) 890-902, with minor modifications R. K. K. Lee, et al., Metabolic glutamate receptors increase amyloid precursor protein processing in astrocytes: inhibition by cyclic AMP, J. Neurochem. 68 (1997) 1830-1835.) In brief, cells from dissociated cortices were plated onto poly-L-lysine coated 35- or 100 mm culture dishes. The initial culture media, minimal essential medium (MEM, Gibco-Life Technologies; Rockville, Md.) containing 15% horse serum (BioWhittaker; Walkersville, Md.), were aspirated 2-5 h after plating to remove unattached cells and debris, and replaced with MEM containing 5% fetal bovine serum (FBS, BioWhittaker; Walkersville, Md.). Half the medium was replaced with MEM/5% FBS twice weekly. Astrocytes were kept at 37° C. in a humidified 5% CO2/95% air incubator for 9-15 days, by which time the cultures were confluent and could be used for experiments.
(§5) Mc-PAF (Biomol; Plymouth Meeting, PA) was dissolved in methanol at a stock concentration of 10 mM. PAF-16, PAF-18, lyso-PAF, AA (Cayman Chemicals), lyso-PC and PC (Sigma) were dissolved in ethanol at stock concentrations of 10 mM. All stock solutions of lipids were stored at −80° C. and were used within 6 weeks of reconstitution. BN 52021 and CV 6209 (Biomol) were dissolved in ethanol. These PAF antagonists were stored at −20° C. in stock concentrations of 100 mM. BN 50730 (Biomeasure; Milford, Mass.) was dissolved in 45% hydroxy-B-cyclodextrin (HBC). All agents were diluted in warned serum-free medium prior to cell stimulation. Equal amounts of vehicle was added to control cells.
(§6) Cells used for all experiments were established in vitro 9-15 days prior to use in experiments and were over 95% confluent. Serum-containing media were changed every 3-4 days. Cells were serum-deprived 24 hours prior to experimental treatments. Where treatment with PAF antagonists is indicated, these compounds were added 30 minutes prior to the addition of other agents.
(§7) PGE2 levels were measured by ELISA according to manufacturer's instructions (Cayman Chemicals, Ann Arbor, Mich.). Since the amount of PGE2 in fresh medium was negligible, (J. Luo, et al., Transforming growth factor B1 regulates the expression of cyclooxygenase in cultured cortical astrocytes and neurons, J. Neurochem. 71 (1998) 526-534), direct assays of the PGE2 concentration in cell-conditioned medium was used as a measurement of PGE2 secretion by cultured cells. Results were derived from at least 3 separate experiments, assayed in duplicate or triplicate (n=6-8). The reliable detection limit of this assay (i.e. sensitivity) averaged 14+/−6 pg of PGE2.

[5] = tested on: formalin-induced nociception; test: Formalin test, intra-hippocampal injection; type: in vivo, rat
Experimental: as §1, §3, §2

[6] = tested on: astrocyte-enriched cortical cell cultures; test: PGE2 release (ELISA) from astrocyte-enriched cortical cell cultures exposed to PAF analogs, related lipids or AA; type: cell-based, rat
Experimental: as §4, §5, §6, §7

[7] = tested on: COX-1; test: COX-1 protein level after mc-PAF stimulation (immunocytochemical and Western blot analyses); type: cell-based, rat; conditions: within 30 min of mc-PAF stimulation; data not shown
[8] = tested on: primary cortical astrocytes; test: Effect of COX inhibitors on mc-PAF-induced PGE2 release from primary astrocytes (Example 3); type: cell-based, rat; conditions: mc-PAF 0.001 to 1 μM, 30 min
Experimental: Mc-PAF (Cayman Chemical, Ann Arbor, Mich.) was dissolved in ethanol at a stock concentration of 10 mM. Indomethacin, piroxicam, NS-398 (Biomol; Plymouth Meeting, Mass.), and SC-560 (Cayman Chemical) were dissolved in 45% hydroxy-β-cyclodextrin (HBC; Sigma, St. Louis, Mo.). Cells were serum-deprived for 24 hrs prior to experimental treatments to induce quiescence. Where treatment with inhibitors is indicated, these compounds were added 30 min prior to the addition of mc-PAF.
Direct assay of the PGE2 concentration in cell-conditioned medium was used as an index of PGE2 secretion by primary astrocytes. PGE2 levels were measured by ELISA according to manufacturer's instructions (Cayman Chemicals, Ann Arbor, Mich.), as described.
Results were derived from at least 3 separate experiments, assayed in duplicate or triplicate (n=6−8). Data were expressed as means+/−SEMs. Statistical analyses were performed using ANOVAs for comparisons between groups, followed by Fischer's PLSD post hoc comparisons by means contrast. p values <0.05 were considered statistically significant.

[9] = tested on: astrocyte-enriched cortical cell cultures
[10] = tested on: COX-2; test: COX-2 protein level after mc-PAF stimulation (immunocytochemical and Western blot analyses); type: cell-based, rat; conditions: within 30 min of mc-PAF stimulation; data not shown

SMILES: COc1ccc(NC(=S)N2CCc3c(sc4c3C(c3ccccc3Cl)=NCc3nnc(C)n3-4)C2)cc1 [BN 50730]
- comparative efficacy when administered to the spinal cord ([1]; administered to the spinal cord (Example 4)): more effective than BN 52021
- nociceptive response [1]: decreased the nociceptive response
- nociceptive response (paw elevation time), early phase [2]: not significantly affected
- nociceptive response (paw elevation time), late phase [2]: significantly shorter paw elevation times; also recorded: decreased nociceptive behavior
- dose-response relationship of decrease in nociceptive behavior [2]: a dose-response relationship was not revealed
- nociceptive response (paw elevation), group effect [3]: not significantly affected
- mc-PAF-induced PGE2 release [4]: attenuates; also recorded: prevented; also recorded: completely abolished
- AA-induced PGE2 release [4]: significantly attenuated; also recorded: only attenuated; also recorded: attenuates
- lyso-PAF-induced PGE2 release [4]: significantly attenuated; also recorded: completely abolished; also recorded: attenuates
- basal release of PGE2 ([4]; higher concentrations of BN 50730): reduce the basal release of PGE2
- nociceptive behavior during the tonic or late phase [5]: not

SMILES: C[C@@H]1C(=O)O[C@H]2[C@H](O)[C@@]34[C@H]5C[C@@H](C(C)(C)C)[C@]36[C@@H](OC(=O)[C@@H]6O)O[C@@]4(C(=O)O5)[C@@]12O [BN 52021, ginkolide B]
- nociceptive response [1]: not
- nociceptive response (paw elevation time), early phase [2]: not significantly affected
- nociceptive response (paw elevation time), late phase [2]: significantly shorter times; also recorded: decreased nociceptive behavior
- dose-response relationship of decrease in nociceptive behavior [2]: a dose-response relationship was not revealed
- comparative efficacy when administered to the brain ([3]; administered to the brain (Example 4)): more effective than BN 50730
- paw elevation at 50 min post-formalin ([3]; lateral ventricle, 1 μg): decreased paw elevation
- nociceptive response (paw elevation), group effect [3]: significantly affected
- levels of paw elevation between 30 and 45 min post-formalin ([3]; lateral ventricle, 10 and 1 μg, independent t-tests): significantly attenuated
- nociceptive responses compared with control-treated rats ([3]; lateral ventricle, 10 or 1 μg, Scheffe's post-hoc): significantly diminished
- mc-PAF-induced PGE2 release [4]: no significant effect; also recorded: did not significantly influence; also recorded: do not attenuate
- AA-induced PGE2 release [4]: had no effect
- lyso-PAF-induced PGE2 release [4]: had no effect
- PGE2 release, antagonist administered alone ([4]; no mc-PAF): PGE2 release was increased
- nociceptive behavior during the tonic or late phase [5]: decreases nociceptive behavior

SMILES: CCCCCCCCCCCCCCCCOC[C@H](COP(=O)([O-])OCC[N+](C)(C)C)OC(=O)NC [mc-PAF, methylcarbamyl-PAF]
- time at which PGE2 levels returned to baseline ([6]; 1 μM mc-PAF): ≤ 12 h
- time of maximum mobilization of PGE2 ([6]; 1 μM mc-PAF): 30 min
- time of second, smaller peak of PGE2 release ([6]; 1 μM mc-PAF): 8 h
- time to first observed increase in PGE2 release ([6]; 1 μM mc-PAF): ≤ 5 min
- PGE2 release over time ([6]; 1 μM mc-PAF, 37° C., various times): time-dependent increase
- PGE2 release into the conditioned media ([6]; 30 min, 37° C., various concentrations): concentration-dependent increases
- COX-1 protein levels [7]: did not increase
- release of PGE2 into the conditioned media [8]: concentration-dependent increases
- toxicity to cells ([9]; 1 μM mc-PAF): does not appear to have toxic effects
- toxicity to cells ([9]; 10 μM mc-PAF, 24 hours): cytologic evidence of toxicity
- COX-2 protein levels [10]: did not increase
